Experimental data published in patent publication US10017768B2, “Method of treatment of chlamydial infections with selected EGFR inhibitors” (priority 2013, dated 2018).
Entries after “also recorded” stand apart in the source; their conditions may differ.

What was measured:
C. trachomatis [1] = assay: Number, size and development of chlamydial inclusions in HeLa cells (confocal microscopy, ImageJ); assay type: cell-based, Chlamydia trachomatis strain D; conditions: for Inclusion size / Number of inclusions: C. trachomatis 24 h; for Inclusion development: total infection 24 h
Protocol: Propagation of Chlamydia and infections. Chlamydia trachomatis strain D (C. trachomatis) was propagated in HeLa cells grown in complete DMEM containing cyclohexamide (2 μg/ml). After 48 h, infected cells were harvested in sucrose-phosphate-glutamate (SPG) buffer, ruptured by vortexing with 3 mm glass beads. EBs were purified using previously described methods. The resulting bacterial pellet was resuspended in cold SPG buffer with a 21 to 22-gauge injection needle and stored in aliquots at −80° C. For infection, chlamydial EBs were added to cells in monolayer (80% confluence) at a multiplicity of infection (MOI) of 2-10 for all studies included here. Centrifugation was not used during the infection.
siRNA transfections. […] After 24 h, transfected cells were replated for a second round of transfection. After another 24 h, cells were infected with C. trachomatis and incubated for different time intervals (siRNA was maintained during the infection) according to the experimental design and were either stained for analyzing the inclusion development or prepared for Western blot analysis.
(§1) EGFR inhibitor treatment. […] The cells were pretreated with Erlotinib (25 μM) for 2 h and then infected with C. trachomatis. […] The inhibitor concentration was maintained during the infection. In certain experiments in which protein phosphorylation was investigated (FIG. 1, Panels B, D, F and G, FIG. 2, FIG. 3 and FIG. 11) the cells were serum starved overnight before drug treatment and C. trachomatis infection. […] Infected samples were used either for Western blotting or confocal imaging as described below. In another set of experiments the cells were infected with C. trachomatis followed by addition of Erlotinib at 2.5, 5 and 18 hpi. The total time for C. trachomatis infection was 24 h after which the samples were used for Western blotting or confocal imaging.
Immunofluorescence. Cells were infected with C. trachomatis as described above. The cells were washed 5 times with PBS and fixed at either 2.5 hpi or 24 hpi with 4% PFA for 10 min and blocked with 5% BSA for 1 h. After washing with TBS (50 mM Tris HCl, pH 7.4 and 150 mM NaCl) the cells were permeabilized for 15 min with 0.1% Triton X-100 and again washed with TBS followed by incubation with the indicated primary antibodies overnight. […] After repeated washings, the coverslips were mounted and analyzed using Zeiss LSM 510 or 710 laser scanning confocal microscope. For the studies shown in FIG. 1, Panel A, C. trachomatis inclusions were stained using the Pathfinder Chlamydia Culture Confirmation System (BioRad, Hercules, Calif., USA). At 24 h post C. trachomatis infection, cells were fixed with methanol for 10 min at room temperature and stained with the FITC conjugated pathfinder anti-chlamydial mAb according to the manufacturer's protocol (Bio-Rad, Hercules, Calif.). For the co-localization studies, 30,000 HeLa cells were seeded into EZ slide 4-well glass slides (Millipore, Temecula, Calif., USA) and infected with C. trachomatis as described above for 2.5 h the next day. Cells were fixed 24 h later in 4% formaldehyde in PBS for 15 min, permeabilized in 0.1% Triton X-100 for 10 min, and blocked in 1% BSA for 1 h at room temperature. […] The slides were mounted with Fluoromount mounting medium (Sigma Aldrich, St. Louis, Mo., USA), sealed, and examined using Zeiss 710 laser scanning confocal microscope.
BAPTA/AM and Ionomycin treatment. Monolayers of HeLa cells were washed with PBS and replaced with calcium free DMEM+1% FBS and pretreated for 1 h with BAPTA/AM (15 μM) followed by C. trachomatis infection for 24 h. BAPTA/AM concentration was maintained during the C. trachomatis infection. The control cells were treated with DMSO (<0.1%) followed by 24 h of C. trachomatis infection. In another set of experiments, HeLa cells were infected with C. trachomatis followed by addition of BAPTA/AM (15 μM) or DMSO at 2 or 5 hpi. The total time for C. trachomatis infection was 24 h.

F-actin = assay: Organization of F-actin at the chlamydial inclusion periphery (confocal microscopy); assay type: cell-based, human; conditions: C. trachomatis 24 h
Protocol: Immunofluorescence. Cells were infected with C. trachomatis as described above. The cells were washed 5 times with PBS and fixed at either 2.5 hpi or 24 hpi with 4% PFA for 10 min and blocked with 5% BSA for 1 h. After washing with TBS (50 mM Tris HCl, pH 7.4 and 150 mM NaCl) the cells were permeabilized for 15 min with 0.1% Triton X-100 and again washed with TBS followed by incubation with the indicated primary antibodies overnight. […] After repeated washings, the coverslips were mounted and analyzed using Zeiss LSM 510 or 710 laser scanning confocal microscope. For the studies shown in FIG. 1, Panel A, C. trachomatis inclusions were stained using the Pathfinder Chlamydia Culture Confirmation System (BioRad, Hercules, Calif., USA). At 24 h post C. trachomatis infection, cells were fixed with methanol for 10 min at room temperature and stained with the FITC conjugated pathfinder anti-chlamydial mAb according to the manufacturer's protocol (Bio-Rad, Hercules, Calif.). For the co-localization studies, 30,000 HeLa cells were seeded into EZ slide 4-well glass slides (Millipore, Temecula, Calif., USA) and infected with C. trachomatis as described above for 2.5 h the next day. Cells were fixed 24 h later in 4% formaldehyde in PBS for 15 min, permeabilized in 0.1% Triton X-100 for 10 min, and blocked in 1% BSA for 1 h at room temperature. […]

[2] = test system: EGFR, PLCγ1, STAT5 and Akt; assay: Western blot of C. trachomatis-induced phosphorylation of EGFR and downstream effectors in HeLa cells; assay type: cell-based, human; conditions: 25 μM Erlotinib for 2 h followed by Ct infection for 2.5 h
Protocol: (§2) Immunoblotting. Cells were harvested and lysed in modified RIPA buffer (50 mM Tris, 150 mM NaCl, 1% sodium deoxycholate, 1% NP-40, 1 mM sodium fluoride) supplemented with protease inhibitor cocktail and phosphatase inhibitor tablet (Roche). For Western blotting of C. trachomatis antigens, the C. trachomatis-infected cells were lysed in 20 mM HEPES buffer (pH 8.0) containing 8 M urea supplemented with protease inhibitors. Cell lysates were incubated on ice for 1 h and then sonicated briefly. The soluble protein fraction was collected by centrifugation at 10,000 rpm. Total protein was estimated using the BCA method and equal amounts of proteins (10-20 μg) were processed for immunoblotting. Proteins were resolved on 10% SDS polyacrylamide gel and transferred onto a nitrocellulose membrane. The blot was blocked using 3% BSA and incubated with the indicated antibodies. ECL was used to detect the proteins according to the manufacturer's instructions.
EGFR inhibitor treatment. […] The cells were pretreated with Erlotinib (25 μM) for 2 h and then infected with C. trachomatis. […] The inhibitor concentration was maintained during the infection. In certain experiments in which protein phosphorylation was investigated (FIG. 1, Panels B, D, F and G, FIG. 2, FIG. 3 and FIG. 11) the cells were serum starved overnight before drug treatment and C. trachomatis infection. […]

C. trachomatis [3] = assay: Inside out staining: chlamydial attachment and entry into the host cell; assay type: cell-based, Chlamydia trachomatis strain D; conditions: HeLa cells, C. trachomatis 2.5 h
Protocol: Inside out staining. Differential staining of external and internalized bacteria was performed as described previously and using three independent studies. Briefly, cells were grown overnight in 2-well Lab-Tek chamber slides and treated with either EGFR inhibitors or siRNA as described above and subsequently infected with Chlamydia for 2.5 h at 37° C. to allow for bacterial attachment and internalization. […] Infected cells were washed five times in PBS and fixed in 1% paraformaldehyde (PFA). After fixation, cells were blocked in 5% BSA for 1 h and then incubated with FITC-conjugated antibody against chlamydial EBs for 1 h to stain external EBs. Cells were then permeabilized with 0.1% Triton X-100, blocked again, and incubated with antibody against chlamydial LPS followed by incubation with rhodamine-conjugated anti-goat antibody to stain intracellular and extracellular EBs. Imaging was performed using confocal microscopy (Carl Zeiss, Germany). The quantification for the inside out experiments was performed manually based on the number of attached EBs observed per infected cell. The statistical analysis was based on imaging data collected from fifteen fields containing 3-10 cells per field as described below.
Similarly, fifteen random fields (3-10 cells per field) were used for the inside out experiments. All results are presented as mean±SEM. […]

chlamydial Hsp60 = assay: Western blot analysis of chlamydial Hsp60 in infected HeLa cells; assay type: cell-based, Chlamydia trachomatis strain D
Protocol: as §2, §1

chlamydial EBs = assay: Control experiment: viability of elementary bodies (EBs) treated with Erlotinib and Cetuximab (Hsp60 Western blot); assay type: cell-based, Chlamydia trachomatis strain D; conditions: EBs with Erlotinib 25 μM or Cetuximab 20 μg/ml for 2.5 h, HeLa infection 24 h
Excerpt: Control experiments. […] EB pellets were washed and resuspended in SPG buffer and used for subsequent HeLa cell infection. At 24 hpi cells were lysed for Western blotting of chlamydial Hsp60 antigen.

HeLa cells = assay: Cell viability assay (MTT); assay type: cell-based, human; conditions: 25 μM Erlotinib for 24 h
Protocol: Cell proliferation assay. To ensure that the dose of Erlotinib (25 μM) provided maximal inhibition without affecting cell viability, MTT assays were performed. HeLa cells were cultured for 24 h, treated with 25 μM Erlotinib and incubated at 37° C., 5% CO2 for 24 h. After washing the cells, the procedure for cell viability assay was followed as per manufacturer's instructions (Roche).

C. trachomatis [4] = assay: Transmission electron microscopy of HeLa cells infected with C. trachomatis; assay type: cell-based, Chlamydia trachomatis strain D; conditions: C. trachomatis 24 h, vs respective controls
Protocol: Transmission electron microscopy. HeLa cells were infected with C. trachomatis as described above. […] The cells were then washed and post-fixed for 1 h in 1% osmic acid in 0.1 N Millonig's buffer followed by 1 h treatment with 1% uranyl acetate. […] Thin sections were then cut with a Reichert ultracut E microtome and stained with 1% uranyl acetate and Reynold's lead citrate solutions, followed by the analysis using 80 kV Tecnai Spirit BioTwin transmission electron microscope.

intracellular calcium = assay: Intracellular calcium staining (fluorescence microscopy) in HeLa cells; assay type: cell-based, human
Protocol: Intracellular calcium staining. Cells were washed with calcium free incomplete DMEM and incubated with 2 μM Fluo-4 AM diluted in Ca^2++ free incomplete DMEM at 37° C. for 30 min. The cells were then washed with Ca^2++ free HBSS and analyzed for calcium levels using an Olympus IX71 fluorescence microscope.
BAPTA/AM and Ionomycin treatment. Monolayers of HeLa cells were washed with PBS and replaced with calcium free DMEM+1% FBS and pretreated for 1 h with BAPTA/AM (15 μM) followed by C. trachomatis infection for 24 h. BAPTA/AM concentration was maintained during the C. trachomatis infection. The control cells were treated with DMSO (<0.1%) followed by 24 h of C. trachomatis infection. In another set of experiments, HeLa cells were infected with C. trachomatis followed by addition of BAPTA/AM (15 μM) or DMSO at 2 or 5 hpi. The total time for C. trachomatis infection was 24 h. To induce mobilization of calcium from intracellular stores to the cytoplasm, cultured cells were pretreated for 1 h with 1 μg/ml Ionomycin before chlamydial infection. C. trachomatis-infected cells were washed three times with PBS after 24 hpi and processed for immunofluorescence as described above.

[5] = HeLa cells pre-treated with BAPTA/AM 15 μM for 1 h, calcium free DMEM
[6] = HeLa cells treated before infection (Erlotinib 25 μM, Cetuximab 20 μg/ml or siRNA), vs DMSO, IgG or control siRNA

SMILES: CC(=O)OCOC(=O)CN(CC(=O)OCOC(C)=O)c1ccccc1OCCOc1ccccc1N(CC(=O)OCOC(C)=O)CC(=O)OCOC(C)=O [BAPTA/AM]
- Inclusion size (C. trachomatis [1]; [5]): significant decrease; also recorded: significantly reduced
- Number of inclusions (C. trachomatis [1]; [5]): significant decrease; also recorded: significantly reduced
- Inclusion development (C. trachomatis [1]; HeLa cells, BAPTA/AM 15 μM added at 2 or 5 hpi, vs DMSO): Impaired inclusion formation; also recorded: impaired inclusion development
- Assembly of F-actin at the inclusion periphery (F-actin; HeLa cells pre-treated with BAPTA/AM for 1 h): diffused assembly of F-actin at the inclusion periphery

SMILES: C#Cc1cccc(Nc2ncnc3cc(OCCOC)c(OCCOC)cc23)c1 [Erlotinib]
- EGFR phosphorylation induced by Ct infection [2]: an increase in EGFR phosphorylation upon Ct infection in the absence of Erlotinib but not in the presence of the drug
- Inclusion size (C. trachomatis [1]; [6]): Significant reduction
- Number of inclusions (C. trachomatis [1]; [6]): significantly reduced
- Inclusion development (C. trachomatis [1]; HeLa cells, Erlotinib added at 2.5 hpi): impaired regular inclusion formation and resulted in formation of numerous bacterial aggregates; also recorded: incomplete inclusion development and bacterial aggregates
- Inclusion development (C. trachomatis [1]; HeLa cells, Erlotinib added at 5 hpi): impaired regular inclusion formation and resulted in formation of numerous bacterial aggregates; also recorded: incomplete inclusion development and bacterial aggregates
- Inclusion development (C. trachomatis [1]; HeLa cells, Erlotinib added at 18 hpi): did not significantly affect; also recorded: Well-developed C. trachomatis inclusions
- Chlamydial binding to the host cell surface (cell-associated bacteria, external+internalized) (C. trachomatis [3]): Significant reduction
- Chlamydial Hsp60 levels (chlamydial Hsp60; HeLa cells treated before infection, C. trachomatis 2.5 h): significant (P<0.001) reduction
- Chlamydial Hsp60 (chlamydial Hsp60; HeLa cells, Erlotinib 25 μM added at 2.5 hpi, total infection 24 h): Significantly lower expression; also recorded: Significant decrease
- Chlamydial Hsp60 antigen (chlamydial Hsp60; HeLa cells, Erlotinib 25 μM followed by Ct infection for 24 h): marked decrease
- Chlamydial Hsp60 antigen load in cells infected with drug-treated vs untreated EBs (EB viability) (chlamydial EBs): comparable; also recorded: no difference
- Viability of HeLa cells (HeLa cells): did not reduce the viability; also recorded: did not affect the viability
- Inclusion morphology by transmission electron microscopy (C. trachomatis [4]): small inclusions; also recorded: smaller and less mature
- Calcium signal in C. trachomatis-infected cells (Fluo-4 AM) (intracellular calcium; Erlotinib added at 2.5 and 5 hpi, stained at 24 hpi): significant drop in calcium signal; also recorded: weak calcium signal
- Assembly of F-actin at the inclusion periphery (F-actin; HeLa cells with EGFR inhibition): altered

SMILES: C[C@H](CCC(=O)O)C[C@H](C)C[C@H](C)C(=O)/C=C(\O)[C@H](C)C[C@H](C)C/C=C/[C@@H](C)[C@@H](O)[C@@H](C)[C@@H](O)C[C@@H]1CC[C@@](C)([C@H]2CC[C@@](C)([C@@H](C)O)O2)O1 [Ionomycin]
- Inclusion formation in EGFR siRNA treated cells with or without Ionomycin (C. trachomatis [1]; HeLa cells, EGFR siRNA, Ionomycin 1 μg/ml 1 h pre-treatment, Ct 24 h): not able to rescue; also recorded: no significant difference
- Intracellular free calcium (Fura-2/AM) (intracellular calcium; Ionomycin 1 μg/ml for 1 h): Increased intracellular free calcium
